Test results taken from patent US20240294533A1, “2-(HET)ARYL-SUBSTITUTED CONDENSED HETEROCYCLE DERIVATIVES AS PEST CONTROL AGENTS” (Bayer Aktiengesellschaft, priority 2021, published 2024).

Tests used:
Format in all cases: in vivo
Musca domestica = Musca domestica test; conditions: 100 ppm, adult houseflies, after 2 days
Method: Musca domestica Test Solvent: dimethyl sulfoxide An appropriate active ingredient formulation is produced by mixing 10 mg of active ingredient with 0.5 ml of dimethyl sulfoxide and diluting the concentrate with water to the desired concentration. Vessels containing a sponge treated with sugar solution and the desired concentration of active compound formulation are populated with 10 adult houseflies (Musca domestica). After 2 days, the kill rate in % is determined relative to the untreated control. 100% means that all of the flies have been killed; 0% means that none of the flies have been killed.

Boophilus microplus = Boophilus microplus injection test; conditions: 20 μg/tick, after 7 days, laying of fertile eggs
Method: Boophilus microplus—Injection Test Solvent: dimethyl sulfoxide An appropriate active ingredient formulation is produced by mixing 10 mg of active ingredient with 0.5 ml of solvent and diluting the concentrate with solvent to the desired concentration. 1 μl of the active ingredient solution is injected into the abdomen of 5 engorged adult female cattle ticks (Boophilus microplus). The ticks are transferred into dishes and kept in a climate-controlled room. Efficacy is checked after 7 days by laying of fertile eggs. Eggs which are not visibly fertile are stored in a climate-controlled cabinet until the larvae hatch after about 42 days. Efficacy of 100% means that none of the ticks has laid any fertile eggs; 0% means that all the eggs are fertile.

Phaedon cochleariae = Phaedon cochleariae spray test; conditions: 100 g/ha, Chinese cabbage leaf discs, after 7 days
Description: Phaedon cochleariae—Spray Test
Solvent: 78.0 parts by weight of acetone • • 1.5 parts by weight of dimethylformamide
Emulsifier: alkylaryl polyglycol ether
An appropriate active ingredient formulation is produced by dissolving 1 part by weight of active ingredient with the stated parts by weight of solvent and making the solution up to the desired concentration with water containing an emulsifier concentration of 1000 ppm. Further test concentrations are produced by diluting the formulation with emulsifier-containing water.
Discs of Chinese cabbage leaves (Brassica pekinensis) are sprayed with an active ingredient formulation of the desired concentration and, after drying, populated with larvae of the mustard beetle (Phaedon cochleariae).
After 7 days, efficacy in % is determined. 100% means that all the beetle larvae have been killed; 0% means that no beetle larvae have been killed.

CCS(=O)(=O)c1ccc(-n2ncn(-c3ccc(Cl)cc3)c2=O)nc1-c1nc2cc(C(F)(F)C(F)(F)F)cnc2n1C [Example I-23]
efficacy (kill rate) (Musca domestica): 100%
efficacy (Boophilus microplus): 90%
efficacy (Phaedon cochleariae): 100%
